Legend:
[1] = Expected serum concentration after intranasal nalmefene spray (10 mg/ml solution, 0.1 ml per spray); format: in vivo, human
Method: A tartrate, stearate or palmitate formulation of nalmefene may be used, or nalmefene may be in the form of nalmefene hydrochloride, and formulated such that 1 gram of active nalmefene is mixed with 80 ml of distilled water, then adjusted to a pH of approximately 7.4 with dilute sodium hydroxide, and then isotonic saline is added along with a suitable preservative and antibacterial agent, to yield a total volume of 100 ml. This yields a nalmefene solution with a concentration of 10 mg/ml nalmefene. This final solution is passed through a 0.2 micron Millipor filter to remove bacteria and other undesired particles. The filtered solution is then placed aseptically into a container to which is then attached a metered dosing mechanism which allows approximately 0.1 ml to be delivered in each spray. An example of such a metered dosing system in found with the commercially marketed Stadol NS® (Bristol-Myers Squibb Co.). One spray to one nostril may be expected to yield a blood serum concentration of approximately 1 ng/ml 30-90 minutes after administration. […] Alternatively, the human may be given a loading dose of intravenous nalmefene and then transferred to a nasal administration regimen. A practical dosing schedule for nalmefene may be 1.5 mg intranasally every 12 hours. […]

[2] = cited from earlier work
[3] = biological target: kappa-receptor (Homo sapiens, UniProt P41145); details: Kreek et al.; cited from earlier work
[4] = biological target: intraspinal kappa receptors (Rattus norvegicus, UniProt P34975); details: after spinal cord injury; Bakshi et al.; cited from earlier work
[5] = single dose after acute spinal cord injury; Behrmann et al.; cited from earlier work
[6] = per os administration; cited from earlier work

Chain of intraspinal kappa receptors (P34975 whole entry): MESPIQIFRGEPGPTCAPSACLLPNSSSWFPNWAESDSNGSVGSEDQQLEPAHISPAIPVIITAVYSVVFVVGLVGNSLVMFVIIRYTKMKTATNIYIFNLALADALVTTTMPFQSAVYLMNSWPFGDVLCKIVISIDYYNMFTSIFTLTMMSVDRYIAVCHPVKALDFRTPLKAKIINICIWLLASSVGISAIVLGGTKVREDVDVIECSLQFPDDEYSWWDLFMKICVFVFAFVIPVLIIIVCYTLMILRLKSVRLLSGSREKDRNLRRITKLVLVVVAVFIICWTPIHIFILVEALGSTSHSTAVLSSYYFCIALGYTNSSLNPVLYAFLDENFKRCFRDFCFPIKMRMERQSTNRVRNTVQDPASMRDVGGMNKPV
Chain of kappa-receptor (P41145 whole entry): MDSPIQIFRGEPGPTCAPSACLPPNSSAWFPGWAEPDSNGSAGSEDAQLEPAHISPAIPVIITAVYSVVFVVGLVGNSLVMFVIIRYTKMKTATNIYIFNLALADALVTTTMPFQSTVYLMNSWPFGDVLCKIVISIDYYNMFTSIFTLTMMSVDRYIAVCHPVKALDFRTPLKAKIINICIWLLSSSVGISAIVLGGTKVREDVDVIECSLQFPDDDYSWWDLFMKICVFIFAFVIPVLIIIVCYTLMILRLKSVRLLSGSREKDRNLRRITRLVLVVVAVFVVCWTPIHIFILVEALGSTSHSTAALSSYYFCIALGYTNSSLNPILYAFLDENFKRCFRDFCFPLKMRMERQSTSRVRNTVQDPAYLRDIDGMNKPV

| SMILES | steady state serum concentration ([1]; 5 consecutive 1 mg intranasal doses approximately 11 hours apart) | blood serum concentration after one spray ([1]; one 0.1 ml spray of 10 mg/ml solution to one nostril, 30-90 minutes after administration) | average volume of distribution (Vd) ([2]; approximate average in non-elderly adult humans) [L/kg] | serum half life ([2]; in vivo) | elimination constant (Ke) ([2]; value furnished by a distributor of nalmefene) [h⁻¹] | potency as kappa-receptor antagonist compared with other antagonists [3] | effect on dynorphin induced motor dysfunction [4] | effect on neurological recovery / neuroprotection [5] | first pass metabolism [6] |
| --- | --- | --- | --- | --- | --- | --- | --- | --- | --- |
| C=C1CC[C@@]2(O)[C@H]3Cc4ccc(O)c5c4[C@@]2(CCN3CC2CC2)[C@H]1O5 [nalmefene] | approximately 1 ng/ml | approximately 1 ng/ml | ~8.6 | approximately 10.8 hours | 0.0642 | more potent than either naloxone or naltrexone | limits dynorphin induced motor dysfunction | significant neuroprotective effect | very significant first pass metabolism |
| O=C1CC[C@@]2(O)[C@H]3Cc4ccc(O)c5c4[C@@]2(CCN3CC2CC2)[C@H]1O5 [naltrexone] |  |  |  |  |  |  |  |  | very significant first pass metabolism |
